Experimental data published in patent publication US8629159B2, “Thiazolidinedione analogues” (Metabolic Solutions Development Company, LLC, priority 2006, dated 2014).
Marks after values point to notes of the source that are not given here.

Columns and labels:
male Sprague-Dawley rats = experiment: Prevention of Medrol-induced hypertension, mean blood pressure by direct femoral arterial cannulation; type: in vivo, rat; conditions: hypertension generated by treatment with a glucocorticoid
Method: Hypertension was induced in normal male Sprague-Dawley rats by daily dosing with the glucocorticoid methylprednisolone (Medrol) for 8 days. Separate groups of rats received the vehicle (1% carboxymethylcellulose/0.01% Tween 20) by oral gavage and some of both the vehicle-treated and Medrol-treated rats also received daily doses of compound 1 as shown in Table D below. Mean blood pressure was measured by direct femoral arterial cannulation under fed conditions on day 7 and after a 6 hour fast on day 8. The data are mean and (SEM) mean blood pressure obtained by direct cannulation. N=9; * p<0.05 less than blood pressure in Medrol-treated rats.

[1] = test system: Male salt-sensitive Dahl rats; experiment: Fasting free fatty acids (FFA) and adiponectin in treated Dahl rats; type: in vivo, rat; conditions: 3 weeks treatment; 40 mg/kg compound 1, 20 mg/kg rosiglitazone
Method: Doses of these compounds were chosen to produce the same metabolic effects in terms of reduction of triglycerides and elevation of adiponectin (Table E). Direct blood pressure (systolic and diastolic) and heart rate was also measured by telemetry (Tables F—H and FIG. 4).

[2] = test system: Male Dahl salt-sensitive rats; experiment: Antihypertensive action in hypertensive Dahl salt-sensitive rats (high salt diet), mean blood pressure by direct femoral arterial cannulation; type: in vivo, rat
Method: Male Dahl salt-sensitive rats were made hypertensive by feeding of a high salt diet (4% salt) for 3 weeks and then treated daily with the indicated dose of hydrochlorothiazide (HCTZ), compound 1, or the combination of HCTZ and compound 1, as compared to the vehicle alone (1% carboxymethylcellulose/0.01% Tween 20) by oral gavage for 8 days. Mean blood pressure was measured by direct femoral arterial cannulation under fed conditions on day 7 and after a 6 hour fast on day 8.
Referring to FIG. 2 and Table C above, the antihypertensive action of compound 1 is additive with hydrocholothiazide (HCTZ). Data are mean and (SEM) mean blood pressure taken by direct cannulation. N=5; * p<0.05 less than blood pressure in HCTZ-treated rats.

[3] = test system: Male salt-sensitive Dahl rats; experiment: Blood pressure (systolic and diastolic) and heart rate by telemetry in hypertensive Dahl rats; type: in vivo, rat; conditions: for Diastolic blood pressure measured by telemetry, Mean / Heart rate measured by telemetry, Mean / Systolic blood pressure measured by telemetry, Mean: 24 hour average
Method: Direct blood pressure (systolic and diastolic) and heart rate was also measured by telemetry (Tables F—H and FIG. 4). Data in Tables F—H and depicted in FIGS. 4A-4C are 24 hour averages for the last 4 days before the start of the daily oral gavage of treatments (−4, −3, −2, −1) and for the days 1-17 during the treatments shown.

PPARγ = biological target: T1, PPARγ (Homo sapiens, UniProt P37231); experiment: commercial PPARγ binding assay (Invitrogen; PPAR-LBD/Fluormone PPAR Green complex); conditions: for Binding to PPARγ (Fluormone displacement signal): mean of three experiments
T1 construct: purchased Invitrogen Corporation, Carlsbad, Calif
T1 sequence (P37231 238-503 limits assumed): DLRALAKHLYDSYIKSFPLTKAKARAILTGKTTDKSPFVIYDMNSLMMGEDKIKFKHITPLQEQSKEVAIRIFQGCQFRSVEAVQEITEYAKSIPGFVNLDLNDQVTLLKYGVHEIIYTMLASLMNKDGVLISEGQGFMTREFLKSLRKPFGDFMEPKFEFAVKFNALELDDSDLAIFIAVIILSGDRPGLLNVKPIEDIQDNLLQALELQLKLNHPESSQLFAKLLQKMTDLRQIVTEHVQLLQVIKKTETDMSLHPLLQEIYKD
Method: The ability of several exemplary compounds of the present invention, shown in Table A, to bind to PPARγ was measured using a commercial binding assay (Invitrogen Corporation, Carlsbad, Calif.) that measures the test compounds ability to bind with PPAR-LBD/Fluormone PPAR Green complex. These assays were performed on three occasions with each assay using four separate wells (quadruplicate) at each concentration of tested compound. The data are mean and SEM of the values obtained from the three experiments. […] Compounds were added at the concentrations shown, which range from 0.1-100 micromolar.

[4] = day 1 of treatment, rosiglitazone 20 mg/kg, compound 1 40 mg/kg
[5] = day 2 of treatment, rosiglitazone 20 mg/kg, compound 1 40 mg/kg
[6] = day 3 of treatment, rosiglitazone 20 mg/kg, compound 1 40 mg/kg
[7] = day 4 of treatment, rosiglitazone 20 mg/kg, compound 1 40 mg/kg
[8] = day 5 of treatment, rosiglitazone 20 mg/kg, compound 1 40 mg/kg
[9] = day 6 of treatment, rosiglitazone 20 mg/kg, compound 1 40 mg/kg
[10] = day 7 of treatment, rosiglitazone 20 mg/kg, compound 1 40 mg/kg
[11] = day 8 of treatment, rosiglitazone 20 mg/kg, compound 1 40 mg/kg
[12] = day 9 of treatment, rosiglitazone 20 mg/kg, compound 1 40 mg/kg
[13] = day 10 of treatment, rosiglitazone 20 mg/kg, compound 1 40 mg/kg
[14] = day 11 of treatment, rosiglitazone 20 mg/kg, compound 1 40 mg/kg
[15] = day 12 of treatment, rosiglitazone 20 mg/kg, compound 1 40 mg/kg
[16] = day 13 of treatment, rosiglitazone 20 mg/kg, compound 1 40 mg/kg
[17] = day 14 of treatment, rosiglitazone 20 mg/kg, compound 1 40 mg/kg
[18] = day 15 of treatment, rosiglitazone 20 mg/kg, compound 1 40 mg/kg
[19] = day 16 of treatment, rosiglitazone 20 mg/kg, compound 1 40 mg/kg
[20] = day 17 of treatment, rosiglitazone 20 mg/kg, compound 1 40 mg/kg
[21] = day −1, before start of treatment
[22] = day −2, before start of treatment
[23] = day −3, before start of treatment
[24] = day −4, before start of treatment

CCc1ccc(C(=O)COc2ccc(CC3SC(=O)NC3=O)cc2)nc1 (centres unmarked) [Compound 1]
blood pressure lowering (in words) (male Sprague-Dawley rats): significantly lowered blood pressure
Adiponectin [1]: 36*
FFA [1]: 0.70*
Mean blood pressure, Fasted ([2]; 6 hour fast, day 8, oral gavage daily, Compound 1 40 mg/kg/day, HCTZ 5 mg/kg/day): 151
antihypertensive action in combination with HCTZ (in words) ([2]; FIG. 2 and Table C): additive
Mean blood pressure, Fed ([2]; fed, day 7, oral gavage daily, Compound 1 40 mg/kg/day, HCTZ 5 mg/kg/day): 167
blood pressure lowering (in words) ([2]; hypertensive Dahl salt-sensitive rats): significantly lower blood pressure
Diastolic blood pressure measured by telemetry, Mean [3, 4]: 119
Heart rate measured by telemetry, Mean [3, 4]: 420 bpm
Systolic blood pressure measured by telemetry, Mean [3, 4]: 167
Diastolic blood pressure measured by telemetry, Mean [3, 5]: 117
Heart rate measured by telemetry, Mean [3, 5]: 414 bpm
Systolic blood pressure measured by telemetry, Mean [3, 5]: 167
Diastolic blood pressure measured by telemetry, Mean [3, 6]: 120
Heart rate measured by telemetry, Mean [3, 6]: 406 bpm
Systolic blood pressure measured by telemetry, Mean [3, 6]: 171
Diastolic blood pressure measured by telemetry, Mean [3, 7]: 119
Heart rate measured by telemetry, Mean [3, 7]: 405 bpm
Systolic blood pressure measured by telemetry, Mean [3, 7]: 170
Diastolic blood pressure measured by telemetry, Mean [3, 8]: 122
Heart rate measured by telemetry, Mean [3, 8]: 400 bpm
Systolic blood pressure measured by telemetry, Mean [3, 8]: 173
Diastolic blood pressure measured by telemetry, Mean [3, 9]: 121
Heart rate measured by telemetry, Mean [3, 9]: 395 bpm
Systolic blood pressure measured by telemetry, Mean [3, 9]: 173
Diastolic blood pressure measured by telemetry, Mean [3, 10]: 125
Heart rate measured by telemetry, Mean [3, 10]: 389 bpm
Systolic blood pressure measured by telemetry, Mean [3, 10]: 176
Diastolic blood pressure measured by telemetry, Mean [3, 11]: 128
Heart rate measured by telemetry, Mean [3, 11]: 394 bpm
Systolic blood pressure measured by telemetry, Mean [3, 11]: 180
Diastolic blood pressure measured by telemetry, Mean [3, 12]: 129
Heart rate measured by telemetry, Mean [3, 12]: 388 bpm
Systolic blood pressure measured by telemetry, Mean [3, 12]: 182
Diastolic blood pressure measured by telemetry, Mean [3, 13]: 132
Heart rate measured by telemetry, Mean [3, 13]: 389 bpm
Systolic blood pressure measured by telemetry, Mean [3, 13]: 185
Diastolic blood pressure measured by telemetry, Mean [3, 14]: 132
Heart rate measured by telemetry, Mean [3, 14]: 389 bpm
Systolic blood pressure measured by telemetry, Mean [3, 14]: 184
Diastolic blood pressure measured by telemetry, Mean [3, 15]: 132
Heart rate measured by telemetry, Mean [3, 15]: 391 bpm
Systolic blood pressure measured by telemetry, Mean [3, 15]: 187
Diastolic blood pressure measured by telemetry, Mean [3, 16]: 135
Heart rate measured by telemetry, Mean [3, 16]: 388 bpm
Systolic blood pressure measured by telemetry, Mean [3, 16]: 189
Diastolic blood pressure measured by telemetry, Mean [3, 17]: 135
Heart rate measured by telemetry, Mean [3, 17]: 385 bpm
Systolic blood pressure measured by telemetry, Mean [3, 17]: 192
Diastolic blood pressure measured by telemetry, Mean [3, 18]: 137
Heart rate measured by telemetry, Mean [3, 18]: 390 bpm
Systolic blood pressure measured by telemetry, Mean [3, 18]: 193
Diastolic blood pressure measured by telemetry, Mean [3, 19]: 138
Heart rate measured by telemetry, Mean [3, 19]: 389 bpm
Systolic blood pressure measured by telemetry, Mean [3, 19]: 197
Diastolic blood pressure measured by telemetry, Mean [3, 20]: 141
Heart rate measured by telemetry, Mean [3, 20]: 388 bpm
Systolic blood pressure measured by telemetry, Mean [3, 20]: 195
Diastolic blood pressure measured by telemetry, Mean [3, 21]: 125
Heart rate measured by telemetry, Mean [3, 21]: 393 bpm
Systolic blood pressure measured by telemetry, Mean [3, 21]: 173
Diastolic blood pressure measured by telemetry, Mean [3, 22]: 127
Heart rate measured by telemetry, Mean [3, 22]: 398 bpm
Systolic blood pressure measured by telemetry, Mean [3, 22]: 175
Diastolic blood pressure measured by telemetry, Mean [3, 23]: 123
Heart rate measured by telemetry, Mean [3, 23]: 400 bpm
Systolic blood pressure measured by telemetry, Mean [3, 23]: 170
Diastolic blood pressure measured by telemetry, Mean [3, 24]: 124
Heart rate measured by telemetry, Mean [3, 24]: 406 bpm
Systolic blood pressure measured by telemetry, Mean [3, 24]: 171
effect on heart rate (in words) ([3]; telemetry, Tables F-H): reducing heart rate
reduction of blood pressure compared with rosiglitazone (in words) ([3]; telemetry, Tables F-H): more effective in reducing blood pressure
Binding to PPARγ (Fluormone displacement signal) (PPARγ; 1 μM compound): 223
Binding to PPARγ (Fluormone displacement signal) (PPARγ; 3 μM compound): 228
Binding to PPARγ (Fluormone displacement signal) (PPARγ; 10 μM compound): 207
Binding to PPARγ (Fluormone displacement signal) (PPARγ; 50 μM compound): 174
Binding to PPARγ (Fluormone displacement signal) (PPARγ; 100 μM compound): 170
Binding to PPARγ (Fluormone displacement signal) (PPARγ; .1 μM compound): 227
Binding to PPARγ (Fluormone displacement signal) (PPARγ; .3 μM compound): 232
binding to PPARγ (in words) (PPARγ; FIG. 1 and Table B): particularly poor binders
